Assay results published in ChEMBL document CHEMBL4020848, “Antibacterial Activity Affected by the Conformational Flexibility in Glycine-Lysine Based α-Helical Antimicrobial Peptides” (J Med Chem, 2018).
Values belong to the substance of their own block, whether it stands above or below them. Active and inactive are the calls of the source. The calls are words filed in the database; no cut-off is given here.

What was measured:
[1] = Cytotoxicity against human peripheral blood leukocytes assessed as cell viability at 50 uM after 4 hrs by acridine orange/ethidium bromide staining based fluorescence microscopic method relative to control; parameters: species or system Leukocyte; settings: read-out: Activity
Staphylococcus aureus [2] = experiment: Antibacterial activity against clinical isolates of Staphylococcus aureus after 18 hrs by microdilution method; format: functional
Escherichia coli [3] = experiment: Induction of membrane permeabilization in Escherichia coli ATCC 25922 assessed as loss of pili/flagella at MBC after 1 hr by atomic force microscopic method; format: functional
[4] = Selectivity index, ratio of HC50 for human RBC to MIC for Klebsiella pneumoniae ATCC 13883
[5] = Selectivity index, ratio of HC50 for human RBC to MIC for Pseudomonas aeruginosa
Staphylococcus aureus [6] = experiment: Bactericidal activity against Staphylococcus aureus ATCC 25923 after 18 hrs by microdilution method; format: functional; settings: ATCC 25923, 18 h, read-out: MBC=>99.9
Staphylococcus aureus [7] = experiment: Antibacterial activity against Staphylococcus aureus ATCC 25923 after 18 hrs by microdilution method; format: functional; settings: ATCC 25923, 18 h
Escherichia coli [8] = experiment: Induction of membrane permeabilization in Escherichia coli ATCC 25922 assessed as bleb formation at MIC after 1 hr by atomic force microscopic method; format: functional
[9] = Cytotoxicity against human peripheral blood leukocytes assessed as cell viability at 50 uM after 24 hrs by acridine orange/ethidium bromide staining based fluorescence microscopic method relative to control; parameters: species or system Leukocyte; settings: read-out: Activity
Escherichia coli [10] = experiment: Growth inhibition of Escherichia coli ATCC 25922 measured every 10 mins for 4 hrs; format: functional
Escherichia coli [11] = experiment: Induction of membrane permeabilization in Escherichia coli ATCC 25922 assessed as propidium iodide uptake preincubated up to 60 mins followed by propidium iodide addition by flow cytometry; format: functional
[12] = Selectivity index, ratio of HC50 for human RBC to MIC for Acinetobacter baumannii ATCC 19606
Acinetobacter baumannii [13] = experiment: Antibacterial activity against Acinetobacter baumannii ATCC 19606 after 18 hrs by microdilution method; format: functional; settings: ATCC 19606 = CIP 70.34 = JCM 6841, 18 h
Klebsiella pneumoniae [14] = experiment: Antibacterial activity against clinical isolates of Klebsiella pneumoniae after 18 hrs by microdilution method; format: functional
[15] = Cytotoxicity against human peripheral blood leukocytes assessed as cell viability at 100 uM after 24 hrs by acridine orange/ethidium bromide staining based fluorescence microscopic method relative to control; parameters: species or system Leukocyte; settings: read-out: Activity
Pseudomonas aeruginosa [16] = experiment: Antibacterial activity against clinical isolates of Pseudomonas aeruginosa after 18 hrs by microdilution method; format: functional
Escherichia coli [17] = experiment: Antibacterial activity against Escherichia coli ATCC 25922 after 18 hrs by microdilution method; format: functional; settings: ATCC 25922, 18 h
Escherichia coli [18] = experiment: Induction of membrane permeabilization in Escherichia coli ATCC 25922 assessed as surface indentations at MIC after 1 hr by atomic force microscopic method; format: functional
Pseudomonas aeruginosa [19] = experiment: Bactericidal activity against clinical isolates of Pseudomonas aeruginosa after 18 hrs by microdilution method; format: functional; settings: read-out: MBC=>99.9
[20] = Selectivity index, ratio of HC50 for human RBC to MIC for Staphylococcus aureus ATCC 25923
Staphylococcus aureus [21] = experiment: Bactericidal activity against clinical isolates of Staphylococcus aureus after 18 hrs by microdilution method; format: functional; settings: read-out: MBC=>99.9
Escherichia coli [22] = experiment: Antibacterial activity against clinical isolates of Escherichia coli after 18 hrs by microdilution method; format: functional
[23] = Selectivity index, ratio of HC50 for human RBC to MIC for Klebsiella pneumoniae
Klebsiella pneumoniae [24] = experiment: Bactericidal activity against clinical isolates of Klebsiella pneumoniae after 18 hrs by microdilution method; format: functional; settings: read-out: MBC=>99.9
[25] = Selectivity index, ratio of HC50 for human RBC to MIC for Staphylococcus aureus
Escherichia coli [26] = experiment: Induction of membrane permeabilization in Escherichia coli ATCC 25922 assessed as massive cell disruption/collapse at MBC after 1 hr by atomic force microscopic method; format: functional
Klebsiella pneumoniae [27] = experiment: Bactericidal activity against Klebsiella pneumoniae ATCC 13883 after 18 hrs by microdilution method; format: functional; settings: ATCC 13883, 18 h, read-out: MBC=>99.9
Pseudomonas aeruginosa [28] = experiment: Bactericidal activity against Pseudomonas aeruginosa ATCC 27853 after 18 hrs by microdilution method; format: functional; settings: ATCC 27853, 18 h, read-out: MBC=>99.9
[29] = Genotoxicity in human peripheral blood leukocytes assessed as DNA damage up to 100 uM up to 24 hrs by alkaline comet assay; format: toxicity, cell-based; settings: leukocyte
Staphylococcus aureus [30] = experiment: Growth inhibition of Staphylococcus aureus ATCC 25923 measured every 10 mins for 4 hrs; format: functional
Escherichia coli [31] = experiment: Bactericidal activity against clinical isolates of Escherichia coli after 18 hrs by microdilution method; format: functional; settings: read-out: MBC=>99.9
Acinetobacter baumannii [32] = experiment: Antibacterial activity against clinical isolates of Acinetobacter baumannii after 18 hrs by microdilution method; format: functional
Klebsiella pneumoniae [33] = experiment: Antibacterial activity against Klebsiella pneumoniae ATCC 13883 after 18 hrs by microdilution method; format: functional; settings: ATCC 13883, 18 h
[34] = Cytotoxicity against human peripheral blood leukocytes assessed as cell viability at 100 uM after 4 hrs by acridine orange/ethidium bromide staining based fluorescence microscopic method relative to control; parameters: species or system Leukocyte; settings: read-out: Activity
[35] = Selectivity index, ratio of HC50 for human RBC to MIC for Pseudomonas aeruginosa ATCC 27853
[36] = Selectivity index, ratio of HC50 for human RBC to MIC for Escherichia coli ATCC 25922
Escherichia coli [37] = experiment: Induction of membrane permeabilization in Escherichia coli ATCC 25922 assessed as massive damage at 0.5 to 1 uM after 1 hr by atomic force microscopic method; format: functional
Pseudomonas aeruginosa [38] = experiment: Antibacterial activity against Pseudomonas aeruginosa ATCC 27853 after 18 hrs by microdilution method; format: functional; settings: ATCC 27853, 18 h
[39] = Selectivity index, ratio of HC50 for human RBC to MIC for Acinetobacter baumannii
Escherichia coli [40] = experiment: Induction of membrane permeabilization in Escherichia coli ATCC 25922 assessed as incipient damage at 0.25 uM after 1 hr by atomic force microscopic method; format: functional
Acinetobacter baumannii [41] = experiment: Bactericidal activity against clinical isolates of Acinetobacter baumannii after 18 hrs by microdilution method; format: functional; settings: read-out: MBC=>99.9
[42] = Selectivity index, ratio of HC50 for human RBC to MIC for Escherichia coli
Escherichia coli [43] = experiment: Bactericidal activity against Escherichia coli ATCC 25922 after 18 hrs by microdilution method; format: functional; settings: ATCC 25922, 18 h, read-out: MBC=>99.9
Acinetobacter baumannii [44] = experiment: Bactericidal activity against Acinetobacter baumannii ATCC 19606 after 18 hrs by microdilution method; format: functional; settings: ATCC 19606 = CIP 70.34 = JCM 6841, 18 h, read-out: MBC=>99.9
Escherichia coli [45] = experiment: Induction of membrane permeabilization in Escherichia coli ATCC 25922 assessed as formation of pores/cavities at MIC after 1 hr by atomic force microscopic method; format: functional
Escherichia coli [46] = experiment: Induction of membrane permeabilization in Escherichia coli ATCC 25922 assessed as propidium iodide uptake at MIC preincubated for 15 mins followed by propidium iodide addition by flow cytometry relative to control; format: functional

MIC (Staphylococcus aureus [2]): 4 to 8 µM
MIC (Staphylococcus aureus [7]): 8 to 16 µM
IC50 (Escherichia coli [11]): 500 nM
MIC (Acinetobacter baumannii [13]): 0.5 to 1 µM
MIC (Klebsiella pneumoniae [14]): 4 µM
MIC (Pseudomonas aeruginosa [16]): 2 to 4 µM
MIC (Escherichia coli [17]): 0.25 to 0.5 µM
MIC (Escherichia coli [22]): 4 µM
MIC (Acinetobacter baumannii [32]): 0.5 µM
MIC (Klebsiella pneumoniae [33]): 2 µM
MIC (Pseudomonas aeruginosa [38]): 2 µM
Substance: H-KIAKGALKALKIAKVALKAL-NH2
viability at 4 h, 50 µM [1]: 92%
Activity (Escherichia coli [3]): Active
Selectivity Index [4]: 15
Selectivity Index [5]: 7 to 15
MBC (Staphylococcus aureus [6]): 8 to 16 µM
Activity (Escherichia coli [8]): Active
viability at 24 h, 50 µM [9]: 92%
IC50 (Escherichia coli [10]): 350 nM
Selectivity Index [12]: 30 to 60
viability at 24 h, 100 µM [15]: 83%
Activity (Escherichia coli [18]): Active
MBC (Pseudomonas aeruginosa [19]): 4 µM
Selectivity Index [20]: 2 to 4
MBC (Staphylococcus aureus [21]): 8 µM
Selectivity Index [23]: 7
MBC (Klebsiella pneumoniae [24]): 8 µM
Selectivity Index [25]: 4 to 8
Activity (Escherichia coli [26]): Active
MBC (Klebsiella pneumoniae [27]): 2 µM
MBC (Pseudomonas aeruginosa [28]): 4 µM
Activity [29]: Non-Toxic
IC50 (Staphylococcus aureus [30]): 800 nM
MBC (Escherichia coli [31]): 8 µM
viability at 4 h, 100 µM [34]: 89%
Selectivity Index [35]: 15
Selectivity Index [36]: 60 to 120
Activity (Escherichia coli [37]): Active
Selectivity Index [39]: 60
Activity (Escherichia coli [40]): Active
MBC (Acinetobacter baumannii [41]): 1 µM
Selectivity Index [42]: 7
MBC (Escherichia coli [43]): 0.5 to 1 µM
MBC (Acinetobacter baumannii [44]): 1 µM
Activity (Escherichia coli [45]): Active

MIC (Staphylococcus aureus [2]): 2 to 4 µM
MIC (Staphylococcus aureus [7]): 4 µM
IC50 (Escherichia coli [11]): 200 nM
MIC (Acinetobacter baumannii [13]): 2 µM
MIC (Klebsiella pneumoniae [14]): 16 to 32 µM
MIC (Pseudomonas aeruginosa [16]): 32 µM
MIC (Escherichia coli [17]): 1 to 2 µM
MIC (Escherichia coli [22]): 32 µM
MIC (Acinetobacter baumannii [32]): 16 to 32 µM
MIC (Klebsiella pneumoniae [33]): 2 to 4 µM
MIC (Pseudomonas aeruginosa [38]): 8 to 16 µM
Substance: H-KIALKALKALKALGKALKAL-NH2
Activity (Escherichia coli [3]): Active
Selectivity Index [4]: 2 to 6
Selectivity Index [5]: < 1
MBC (Staphylococcus aureus [6]): 4 µM
Activity (Escherichia coli [8]): Active
IC50 (Escherichia coli [10]): 350 nM
Selectivity Index [12]: 5
Activity (Escherichia coli [18]): Active
MBC (Pseudomonas aeruginosa [19]): 32 µM
Selectivity Index [20]: 2.5
MBC (Staphylococcus aureus [21]): 4 to 8 µM
Selectivity Index [23]: < 1
MBC (Klebsiella pneumoniae [24]): 32 to 64 µM
Selectivity Index [25]: 2 to 6
Activity (Escherichia coli [26]): Active
MBC (Klebsiella pneumoniae [27]): 4 µM
MBC (Pseudomonas aeruginosa [28]): 16 µM
IC50 (Staphylococcus aureus [30]): 400 nM
MBC (Escherichia coli [31]): 32 µM
Selectivity Index [35]: < 1
Activity (Escherichia coli [46]): >80%
Selectivity Index [36]: 5 to 10
Selectivity Index [39]: < 1
MBC (Acinetobacter baumannii [41]): 32 µM
Selectivity Index [42]: < 1
MBC (Escherichia coli [43]): 2 to 4 µM
MBC (Acinetobacter baumannii [44]): 2 µM
Activity (Escherichia coli [45]): Active

MIC (Staphylococcus aureus [2]): 16 µM
MIC (Staphylococcus aureus [7]): 16 µM
IC50 (Escherichia coli [11]): 1400 nM
MIC (Acinetobacter baumannii [13]): 2 µM
MIC (Klebsiella pneumoniae [14]): 16 µM
MIC (Pseudomonas aeruginosa [16]): 16 to 32 µM
MIC (Escherichia coli [17]): 8 µM
MIC (Escherichia coli [22]): 32 to 64 µM
MIC (Acinetobacter baumannii [32]): 32 to 64 µM
MIC (Klebsiella pneumoniae [33]): 16 µM
MIC (Pseudomonas aeruginosa [38]): 8 µM
Substance: H-KIGKALGKALKALGKALGKA-NH2
Activity (Escherichia coli [3]): Active
Selectivity Index [4]: < 1
Selectivity Index [5]: < 1
MBC (Staphylococcus aureus [6]): 32 µM
Activity (Escherichia coli [8]): Active
IC50 (Escherichia coli [10]): 700 nM
Selectivity Index [12]: 5
Activity (Escherichia coli [18]): Active
MBC (Pseudomonas aeruginosa [19]): 32 µM
Selectivity Index [20]: < 1
MBC (Staphylococcus aureus [21]): 16 to 32 µM
Selectivity Index [23]: < 1
MBC (Klebsiella pneumoniae [24]): 32 µM
Selectivity Index [25]: < 1
Activity (Escherichia coli [26]): Active
MBC (Klebsiella pneumoniae [27]): 32 µM
MBC (Pseudomonas aeruginosa [28]): 16 µM
IC50 (Staphylococcus aureus [30]): 2300 nM
MBC (Escherichia coli [31]): 64 µM
Selectivity Index [35]: 2
Activity (Escherichia coli [46]): >80%
Selectivity Index [36]: 2
Selectivity Index [39]: < 1
MBC (Acinetobacter baumannii [41]): 64 µM
Selectivity Index [42]: < 1
MBC (Escherichia coli [43]): 16 µM
MBC (Acinetobacter baumannii [44]): 2 µM
Activity (Escherichia coli [45]): Active
